Results on two compounds are retold here after publication PMC9304199, “A small molecule CFTR potentiator restores ATP‐dependent channel gating to the cystic fibrosis mutant G551D‐CFTR” (British Journal of Pharmacology, 2022).

One test has as its target G551D‐CFTR (Homo sapiens, UniProt P13569, G551D). The test is described as follows: Ussing chamber apical Cl− current (ICl apical) in FRT epithelia expressing G551D‐CFTR. It counts as cell-based. Details: assays at Charles River Laboratories (ChanTest). Conditions: for EC50: G551D‐CFTR FRT epithelia, ICl apical, 27°C, read-out: EC50 (μM) (95% CI); for Emax: read-out: Maximal effect (%) (95% CI). The protocol:
Ussing chamber studies to determine the concentration–response relationships of CFTR potentiators (Figure 1c–f) were performed at Charles River Laboratories (ChanTest) (Cleveland, OH, USA). For these studies, FRT cells were stably transfected with CFTR cDNAs with the F508del and G551D variants and the common polymorphism M470 (synthesised by System Biosciences, Palo Alto, CA, USA) using the Flp‐In™ system (Thermo Fisher Scientific, Waltham, MA, USA). The F508del‐CFTR cDNA contained the following differences from the canonical CFTR cDNA sequence (NCBI Accession Number NM_000492): del CTT (1521–1523) to delete F508; synonymous changes T > C (798), A > G (801), T > C (804) to remove a cryptic bacterial promoter; synonymous change T > C (1095); G > A (1408) to give M470 and was amplified using the primers 5′ […] 3′ and 5′ […] 3′. The G551D‐CFTR cDNA contained the following differences from the canonical CFTR cDNA sequence (NCBI Accession Number NM_000492): G > A (1652) to replace G551 with D551; synonymous changes T > C (798), A > G (801), T > C (804) to remove a cryptic bacterial promoter; synonymous change A > C (516); synonymous change T > C (1095); G > A (1408) to give M470 and was amplified using the primers 5′ […] 3′ and 5′ […] 3′. Using Kpn1 and Not1 restriction sites, the F508del‐ and G551D‐CFTR cDNAs were inserted into pcDNA5/FRT (Flp‐In™) (RRID:Addgene_31984). An FRT cell line stably expressing a flippase (Flp)‐recombinase recognition target integration site (generated by Evotec AG, Hamburg, Germany, using isogenic FRT cells from LJV Galietta) was transfected with the F508del‐ and G551D‐CFTR plasmids and the Flp recombinase plasmid pOG44 (RRID:Addgene_129419) following the manufacturer's instructions. To identify FRT cells expressing F508del‐ and G551D‐CFTR, cells were grown under hygromycin selection and individual clones picked, expanded, and verified for CFTR expression. For Ussing chamber studies to determine the plasma membrane stability of F508del‐CFTR, FRT cells expressing F508del‐CFTR from LJV Galietta were cultured and used as described previously (Meng et al., [2017]).
To grow FRT cells as polarised epithelia, 2 × 10^5 FRT cells were seeded on Snapwell filter inserts and cultured for 7–14 days before use; media were changed every 2–3 days. […]
To test the effects of CP‐628006 on CFTR Cl^− channels in the apical membrane of FRT epithelia, we permeabilized the basolateral membrane with amphotericin B (100 μM). After cancelling voltage offsets, we clamped transepithelial voltage at 0 mV and measured apical Cl^− current (ICl ^apical) continuously using a Physiologic Instruments VCC MC6/8 multichannel voltage/current clamp (Li et al., [2004]).

Another test deals with F508del‐CFTR (Homo sapiens, UniProt P13569, DEL508-508). The test is described as follows: Fluorescence-based halide flux assay (I−-induced quenching of YFP fluorescence) in FRT cells. It counts as cell-based. As to conditions: exploratory data. The protocol: Fischer rat thyroid (FRT) epithelial cells (RRID:CVCL_A6IE) expressing CFTR variants were used for functional studies with halide flux and Ussing chamber techniques. FRT cells stably expressing the F508del variant with the V470 polymorphism and the halide sensor yellow fluorescent protein (YFP)‐H148Q/I152L (F508del‐CFTR‐YFP‐FRT cells) (Galietta et al., [2001]) were obtained from LJV Galietta (Telethon Institute for Genetics and Medicine, Pozzuoli, Italy). They were cultured in Coon's modified Ham's F‐12 medium supplemented with 10% FBS, 2‐mM GlutaMAX™, 0.27% NaHCO3, 100 U·ml^−1 penicillin and 100 μg·ml^−1 streptomycin and 0.8 mg·ml^−1 zeocin at 37°C in a humidified atmosphere with 5% CO2. […]
Chain of F508del‐CFTR (P13569 with tags, fused parts or gaps DEL508-508): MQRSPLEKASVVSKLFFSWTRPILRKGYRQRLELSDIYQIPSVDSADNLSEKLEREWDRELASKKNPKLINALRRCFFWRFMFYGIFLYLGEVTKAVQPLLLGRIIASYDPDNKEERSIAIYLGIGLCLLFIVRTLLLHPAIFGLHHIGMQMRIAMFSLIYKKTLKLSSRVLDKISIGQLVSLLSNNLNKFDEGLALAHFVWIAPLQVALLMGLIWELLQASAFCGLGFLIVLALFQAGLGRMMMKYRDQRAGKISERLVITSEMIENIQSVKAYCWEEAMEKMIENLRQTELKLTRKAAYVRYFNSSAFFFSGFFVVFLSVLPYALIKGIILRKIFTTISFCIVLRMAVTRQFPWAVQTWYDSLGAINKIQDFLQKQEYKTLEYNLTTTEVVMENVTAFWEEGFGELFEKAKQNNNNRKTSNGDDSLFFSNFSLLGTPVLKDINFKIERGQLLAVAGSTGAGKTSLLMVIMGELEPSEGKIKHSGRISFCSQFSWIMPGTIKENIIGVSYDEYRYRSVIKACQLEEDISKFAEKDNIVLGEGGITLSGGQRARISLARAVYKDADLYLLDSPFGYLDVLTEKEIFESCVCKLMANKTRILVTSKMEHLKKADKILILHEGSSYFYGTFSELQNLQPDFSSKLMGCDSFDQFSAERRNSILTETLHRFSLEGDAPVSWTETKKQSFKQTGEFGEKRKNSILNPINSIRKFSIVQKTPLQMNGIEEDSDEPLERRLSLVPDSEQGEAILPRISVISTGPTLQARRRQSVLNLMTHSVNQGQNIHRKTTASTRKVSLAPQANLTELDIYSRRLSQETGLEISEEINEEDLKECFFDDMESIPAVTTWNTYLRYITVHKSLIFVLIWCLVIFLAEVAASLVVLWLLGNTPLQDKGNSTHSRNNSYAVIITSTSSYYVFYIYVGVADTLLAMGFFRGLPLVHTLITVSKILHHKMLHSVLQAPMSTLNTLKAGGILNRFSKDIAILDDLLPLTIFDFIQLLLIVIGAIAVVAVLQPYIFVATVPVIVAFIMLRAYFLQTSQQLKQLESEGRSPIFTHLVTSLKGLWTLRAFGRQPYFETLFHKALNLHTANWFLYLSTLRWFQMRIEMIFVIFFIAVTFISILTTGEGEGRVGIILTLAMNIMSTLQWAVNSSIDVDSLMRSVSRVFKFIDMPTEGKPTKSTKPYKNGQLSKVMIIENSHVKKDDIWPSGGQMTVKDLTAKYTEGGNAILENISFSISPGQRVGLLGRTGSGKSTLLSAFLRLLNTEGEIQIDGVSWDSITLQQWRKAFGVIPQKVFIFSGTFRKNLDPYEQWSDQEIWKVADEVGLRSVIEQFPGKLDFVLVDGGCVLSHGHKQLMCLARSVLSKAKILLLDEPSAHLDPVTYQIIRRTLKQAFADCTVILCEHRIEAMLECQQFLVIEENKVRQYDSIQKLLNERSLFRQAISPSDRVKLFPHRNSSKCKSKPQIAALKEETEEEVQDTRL
CFTR‐mediated anion transport was quantified by measuring I^−‐induced quenching of YFP fluorescence using a microtitre plate reader following the method of Galietta et al. ([2001]). […] Using a fluorescence microtitre plate reader (FLIPR384; Molecular Devices, San Jose, CA, USA) equipped with 500‐nm excitation and 535‐nm emission filters, an initial fluorescence reading was recorded before addition of PBS‐iodide solution (composition [mM]: 137 NaI, 2.7 KCl, 8.1 Na2HPO4, 1.5 KH2PO4, 1 CaCl2, and 0.5 MgCl2, pH 7.40) into each well and 21 s later a second fluorescence reading was acquired. […]

Chain of G551D‐CFTR (P13569 whole entry G551D): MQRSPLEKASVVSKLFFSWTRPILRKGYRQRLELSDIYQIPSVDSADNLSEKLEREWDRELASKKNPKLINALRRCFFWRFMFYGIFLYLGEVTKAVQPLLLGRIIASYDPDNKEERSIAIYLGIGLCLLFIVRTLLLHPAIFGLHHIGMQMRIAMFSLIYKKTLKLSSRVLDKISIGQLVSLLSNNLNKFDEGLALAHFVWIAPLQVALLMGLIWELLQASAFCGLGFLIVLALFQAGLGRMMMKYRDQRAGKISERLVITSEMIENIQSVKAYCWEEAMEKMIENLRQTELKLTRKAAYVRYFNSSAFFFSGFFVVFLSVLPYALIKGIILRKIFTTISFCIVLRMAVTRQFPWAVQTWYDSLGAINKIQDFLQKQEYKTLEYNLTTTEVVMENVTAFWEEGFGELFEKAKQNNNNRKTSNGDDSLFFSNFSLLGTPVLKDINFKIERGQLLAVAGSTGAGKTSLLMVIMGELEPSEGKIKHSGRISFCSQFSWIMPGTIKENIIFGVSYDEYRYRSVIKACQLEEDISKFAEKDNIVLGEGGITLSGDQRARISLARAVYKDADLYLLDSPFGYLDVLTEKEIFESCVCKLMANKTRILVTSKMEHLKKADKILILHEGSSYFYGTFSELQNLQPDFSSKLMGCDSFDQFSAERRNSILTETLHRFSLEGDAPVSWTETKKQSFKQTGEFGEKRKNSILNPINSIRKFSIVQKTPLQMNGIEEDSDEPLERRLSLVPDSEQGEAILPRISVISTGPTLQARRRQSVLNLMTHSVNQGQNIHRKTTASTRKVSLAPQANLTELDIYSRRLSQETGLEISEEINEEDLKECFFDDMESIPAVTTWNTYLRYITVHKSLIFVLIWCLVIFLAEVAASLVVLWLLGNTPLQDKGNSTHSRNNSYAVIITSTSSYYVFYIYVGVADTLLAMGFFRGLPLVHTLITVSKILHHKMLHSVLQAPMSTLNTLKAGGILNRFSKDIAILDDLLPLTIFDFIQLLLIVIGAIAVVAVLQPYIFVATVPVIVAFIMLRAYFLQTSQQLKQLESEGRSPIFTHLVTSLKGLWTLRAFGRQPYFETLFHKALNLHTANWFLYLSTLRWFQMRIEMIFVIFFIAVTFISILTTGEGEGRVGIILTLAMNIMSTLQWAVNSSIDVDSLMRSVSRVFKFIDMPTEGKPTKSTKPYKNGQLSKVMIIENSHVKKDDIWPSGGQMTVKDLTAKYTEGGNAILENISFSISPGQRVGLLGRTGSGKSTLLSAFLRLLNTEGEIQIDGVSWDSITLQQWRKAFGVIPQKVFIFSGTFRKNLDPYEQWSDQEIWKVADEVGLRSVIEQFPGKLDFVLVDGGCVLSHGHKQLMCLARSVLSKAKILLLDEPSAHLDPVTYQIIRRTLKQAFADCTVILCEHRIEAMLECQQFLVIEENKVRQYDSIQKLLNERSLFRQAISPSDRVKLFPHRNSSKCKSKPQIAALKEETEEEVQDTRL

As to `Cc1ncccc1CNC(=O)c1ccc2c(c1)CC[C@H]1C[C@](O)(CCC(F)(F)F)CC[C@]21Cc1ccccc1` (racemic) [CP‐628006, rac‐(4bR,7R,8aS)‐4b‐benzyl‐7‐hydroxy‐N‐((2‐methylpyridin‐3‐yl)methyl)‐7‐(3,3,3‐trifluoropropyl)‐4b,5,6,7,8,8a,9,10‐octahydrophenanthrene‐2‐carboxamide], the EC50 at G551D‐CFTR is 1.68 µM; at F508del‐CFTR (FRT cells co-expressing low temperature-rescued F508del‐V470‐CFTR and YFP, forskolin 20 μM, scaled to DMSO 0% and genistein 50 μM 100%, read-out: EC50 for potentiation of CFTR-mediated anion transport) it was 400 nM. On G551D‐CFTR, the Emax is 39%. Besides, the “maximal response compared with ivacaftor” value at F508del‐CFTR (FRT cells co-expressing low temperature-rescued F508del‐CFTR and YFP) was “approximately half that of ivacaftor”.

Consider `CC(C)(C)c1cc(C(C)(C)C)c(NC(=O)c2c[nH]c3ccccc3c2=O)cc1O` [ivacaftor, reference compound], for which, at G551D‐CFTR, the EC50 is 0.003 µM and the Emax came out at 97%.
